Data set [1] relates to C57BL/6 mouse embryos. As to conditions: in vivo.
Another data set has as its system Hex and Isl-1 expression. Kind of data set: In situ hybridization of Hex and Isl-1 in avian embryos after EtOH exposure with or without FA. It is filed as in vivo, avian (chick). As to conditions: 30% EtOH; HH stage 4; 8 hour incubation.
Data set [2] has as its system C57BL/6 mouse embryos. Briefly: Morphometric parameters and resorptions of E15.5 mouse embryos with ethanol exposure and FA diet. The data set is classed as in vivo. The source says:
The C57Bl/6 mouse strain (Jackson Laboratories) was used.

For another data set, the system named is chick embryos. Briefly: Early embryonic chick culture: heart development (MF20) after HCy, Li or Wnt3A exposure, FA/inositol rescue. It is filed as in vivo, chick (Gallus gallus). The procedure:
Pathogen-free White Leghorn chick (Gallus gallus; Charles River, Mass.) and quail (Coturnix coturnix japonica; Strickland Farms, Ga.) embryos were used to analyze the effects of HCy on early embryogenesis. The early processes of heart development are well conserved among vertebrates and the avian model allows for more precise timing of exposure in early embryos. The incubation methodology using agarose-albumin has been described previously (Darnell and Schoenwolf, 2000). Briefly, the experimental paradigm involved exposing specific early stages of chick embryos, at HH stages 4 to 7 (Hamburger and Hamilton, 1951), to different concentrations of HCy (L-homocysteine thiolactone hydrochloride, Sigma) made up in physiological saline. Final concentrations of HCy included 30 μM, 50 μM, 75 μM and 100 μM. The minimal teratogenic dose was determined empirically to be 50 μM. This fit within the concentration range of 30 μM to 300 μM used by others that induced heart defects at later stages of development (Boot et al., 2004). Control embryos were incubated using the vehicle, physiological saline, in the agarose-albumin medium. Control and experimental cultures were incubated on the agarose-albumin plates for either 8 or 24 hours.
Carrier-free, recombinant mouse Wnt3A was purchased from R&D Systems (Minneapolis, Minn.). Wnt3A concentrations were empirically tested to find those that would induce cardiac defects but maintain embryonic viability. Wnt3A was tested at concentrations of 2 ng, 10 ng, 20 ng, 50 ng and 100 ng per ml. Concentrations of 2 ng/ml and 10 ng/ml were both effective in inducing cardiac defects. Both Wnt3A concentrations were used in the FA rescue experiments, as described. For the FA rescue experiments, folate (folic acid, Sigma-Aldrich) was added at a concentration of 2 μg, 5 μg or 10 μg per ml. […] For the experiments using inositol (myo-inositol, Sigma) supplementation, a concentration of 50 mg/ml was used.
The main embryonic defects related to the timing of embryonic exposure; the regions that were primarily affected related to an anterior-to posterior (AP) wave of development along this embryonic axis. The exposure effects ranged from early effects (e.g. no cardiac tissue, heart development occurring anterior to neural tissue, cardiabifida) to later effects, such as wide hearts and left looping (Table 1). The cardiac phenotypes observed with early HCy exposure were similar, although not identical, to those obtained from previous studies of Li exposure on avian heart development (Manisastry et al., 2006). The Wnt/β-catenin modulated genes Hex and Isl1 in the chick embryo also were similarly repressed with HCy, as with Li in the chick cardiogenic region. […] Investigation of regulatory gene activity in chick embryos indicates Li, HCy and Wnt3A suppress Wnt-modulated genes Hex and Islet-1 in the heart fields.
To define the effective dose of Wnt3A needed to induce cardiac dysmorphogenesis, Wnt3A was tested at concentrations of 2 ng, 10 ng, 20 ng, 50 ng, and 100 ng per ml. The minimal effective doses of Wnt3A that induced cardiac and neural anomalies were 2 ng/ml and 10 ng/ml, respectively. Using these concentrations, the inventors analyzed whether FA supplementation of media at 10^3-fold higher concentrations, that is 2 μg/ml or 10 μg/ml, would provide protection against the augmentation of canonical Wnt3A signaling.

In a further data set the test system is HTR-8/SVneo cells. Kind of data set: In vitro wound assay of human trophoblast cell migration. It is filed as cell-based. As to conditions: HCy exposure experiments; scrape wound. The source says: In previous studies by the inventors analyzing the effects of lithium and the metabolite homocysteine (HCy) on early heart development, the results were similar. Both factors inhibited Wnt/β-catenin-mediated gene expression during induction stages of cardiogenesis. […] Folate protects the embryo from these adverse effects (Han et al., 2009). It was also noted that normal placental development was adversely affected by Li and HCy. A human trophoblast cell line, HTR-8/SVneo cells, was used to determine whether Li or HCy affect the migration of these cells in vitro and whether FA or FA/myo-inositol would protect the cells from adverse effects of the two cardiac teratogens. HCy exposure experiments were conducted. […] The wound edges are depicted by a white line in B. In panel A, it can be seen that the wound area is smaller. Administration of a combination of FA/myo-inositol, FA alone or myo-inositol alone, enhanced the expression of NMHC-IIB and FN to facilitate cell migration.

Data set [3] relates to Hex and Islet-1 (Isl1) gene expression. Kind of data set: In situ hybridization of Hex and Isl1 in avian heart fields after Li, HCy or Wnt3A with or without FA. The data set is classed as in vivo, chick. As to conditions: 8 hours of exposure; HH stages 3+/4. The method, then: In situ hybridizations on control and experimentally manipulated chick embryos were carried out using digoxigenin-labeled riboprobes with alkaline phosphatase detection (Linask et al., 2001). Images of whole-mounted chick embryos were taken with a Nikon DS-L2 camera unit. Probes for chick Hex were provided by Parker Antin, University of Arizona and probes for chick Islet-1 (Isl1) were provided by Thomas Jessell, Columbia University, NY.
Chick embryos (HH stages 3+/4) were incubated on agarose albumin supplemented with HCy (50 μM). Instead of giving a single injection in ovo, embryos were exposed to HCy for 8 hours in order to define the effect on early cardiac gene expression. Another group of embryos were exposed to HCy for 24 hours at which time the effects on gene expression were determined. To analyze the effects during the looping stages, incubation was stopped after between 22 and 24 hours. After the 8-hour incubation, Li and HCy suppressed Hex and Isl1 expression in the cardiogenic crescent (FIG. 5).
The inventors next analyzed whether FA rescues the downregulation of Hex and Isl1. Chick embryos were exposed to Li, HCy or Wnt3A, as above, with and without 10 μg/ml of FA; the experiments were terminated after either an 8-hour or 24-hour exposure period, at which time in situ hybridizations for gene expression were performed. After 8 hours of exposure, Li, HCy and Wnt3A all suppressed Hex (FIGS. 9D, G, J) and Isl1 (FIGS. 10D, G, J) compared with the control embryonic expression patterns (FIG. 9A; FIG. 10A). […] Thus, FA supplementation suppressed the potentiation of the inhibitory Wnt signaling, allowing for normal induction of Hex and Isl1 gene expression.

The mark [4] stands for this setting: 30% EtOH 2.9 g/Kg twice i.p. on E6.75.
Where [5] appears, read: 30% EtOH 3.5 g/Kg once i.p. on E6.75.
[6] abbreviates: HH stage 3 +/4, HCy 50 μM, Li 50 μM, FA 10 μM, inositol 280 mM.

Regarding `CCO` [EtOH, ethanol], in the data set on C57BL/6 mouse embryos [1], the DAPI is on record as 1.73, the DVPI stood at 1.21, the “E/A Ratio” value was 0.29 and the HR worked out at 205 bpm. In the data set on C57BL/6 mouse embryos [1], this molecule registered an ICT % of 10.09%, an IRT % of 14.93%, an MPI of 0.62 and an OF of 26.37 cm/s. In addition, in the data set on C57BL/6 mouse embryos [1], the RR turned out to be 293 ms and the UAPI worked out at 1.75. In the data set on C57BL/6 mouse embryos [1] (ip), the “abnormalities after one i.p. injection of 3.5 g/kg” value is reported as “did not produce any abnormalities” and the “outcome after one i.p. injection of 4.5 g/kg” value is “cardiac abnormalities, but the pregnant mouse appeared sickly”. The “Hex and Isl-1 expression in the heart fields” value in the data set on Hex and Isl-1 expression is “suppressed”. Moreover, in the data set on avian embryos (25% and 30% EtOH, stage 4), the “embryos with cardiac valve anomalies” value came to 68%. In the data set with avian embryos (25% and 30% EtOH, stage 4, FA (10 mg/ml) concurrently, in vitro and in ovo), the “embryos with normal heart development” value was 32%. Moreover, the morphological defects entry in the data set with avian embryos (EtOH in vitro at HH stage 4) is “delayed growth and severe cardiac malformations”. The “effects of 10% EtOH in ovo” value in the data set on avian embryos (quail eggs stage 4, microinjected into airspace) is “no adverse effects”. In addition, in the data set with avian embryos (stage 4 avian embryos), the “teratogenic EtOH dose” value was 25-30%. In the data set on C57BL/6 mouse embryos [2] (setting [4]), the “Body Weight” value is reported as 0.37 g, the CRL is reported as 12.63 min and the “Placenta Weight” value is given as 0.10 g. Also, in the data set with C57BL/6 mouse embryos [2] (setting [5]), the “Body Weight” value was determined as 0.35 g, the CRL worked out at 11.40 min and the “Placenta Weight” value is reported as 0.09 g.
Regarding `O[C@H]1[C@H](O)[C@@H](O)[C@H](O)[C@@H](O)[C@H]1O` [Inositol, myo-inositol], in the data set with chick embryos (setting [6]), the “% Normal Hearts” value is listed as 60%, the “Abnormal (number of embryos)” value turned out to be 2 and the “Normal (number of embryos)” value turned out to be 3. Moreover, in the data set with chick embryos (HH stage 3 +/4, HCy 50 μM, Li 50 μM, FA 10 μM, inositol 280 mM, listed as Inositol only), the “% Normal Hearts” value is given as 60%. In addition, in the data set with HTR-8/SVneo cells, the “expression of NMHC-IIB and FN” value is on record as “enhanced”.
In the case of Wnt3A, the “embryos with normal hearts / normal heart development” value with chick embryos (Wnt3A exposure at HH stages 3+/4, Wnt 2 ng, FA 10 μg) was 18%. Besides, in the data set on chick embryos (in vivo), the “minimal effective dose that induced cardiac anomalies” value is 2 ng/mL and the “minimal effective dose that induced neural anomalies” value is 10 ng/mL. The “Hex and Isl1 expression in the cardiogenic crescent” value in data set [3] is “suppressed”.

For the origin of these results see patent publication US9308210B2, “Method for modulating canonical Wnt pathway using folate and inositol” (University of South Florida, priority 2009, dated 2016).
